The test addresses T1, human GPR39 receptor (Homo sapiens, UniProt O43194).
T1 construct: PC3 Cells, Expressing the Endogenous Human GPR39 Receptor; endogenous in cells; host or cells: PC3 (human prostate adenocarcinoma) cells
T1 sequence (O43194 1-453): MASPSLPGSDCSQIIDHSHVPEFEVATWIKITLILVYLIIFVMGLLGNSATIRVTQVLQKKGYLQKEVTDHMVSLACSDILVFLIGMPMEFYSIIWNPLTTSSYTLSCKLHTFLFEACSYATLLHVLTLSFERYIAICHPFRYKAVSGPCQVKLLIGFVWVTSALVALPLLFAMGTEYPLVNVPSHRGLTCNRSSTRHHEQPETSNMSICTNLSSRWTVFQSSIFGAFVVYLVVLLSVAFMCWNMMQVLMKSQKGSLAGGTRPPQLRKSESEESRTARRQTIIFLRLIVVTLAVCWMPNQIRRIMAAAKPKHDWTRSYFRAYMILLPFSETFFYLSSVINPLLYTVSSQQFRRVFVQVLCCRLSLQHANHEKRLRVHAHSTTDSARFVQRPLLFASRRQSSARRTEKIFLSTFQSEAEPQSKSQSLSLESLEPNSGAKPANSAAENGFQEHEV
The test can be described thus: Measurement of intracellular calcium response in PC3 cells (FLIPR), antagonism of the C3 agonist response. The format is cell-based. Particulars: functional pKi (modified Cheng-Prusoff), inhibition of the C3 (TC-G 1008) response at EC90, 30 μM ZnCl2, read-out: fpKi activity. As to the method: Human prostate adenocarcinoma (PC3) cells endogenously expressing human GPR39 receptor were seeded into black walls clear-base 384-well plates at a density of 7,500 cells per well in DM EM (Low Glucose) supplemented with 10% heat-inactivated foetal bovine serum and 1% of Pen/Strep and grown overnight at 37° C., 5% CO2. After washing with assay buffer (20 mM HEPES, 137 mM NaCI, 5.4 mM KCI, 10 mM glucose, 0.8 mM MgSO4, 1.3 mM CaCl2, 0.3 mM Na2HPO4, 0.4 mM KH2PO4 4.2 mM NaHCO3, pH 7.4), cells were incubated with Calcium-6 probe (Molecular Devices) at 37° C. for 2h and then equilibrated at RT for 30 minutes on metal block. The fluorescence was measured in real time by Fluorometric Imaging Plate Reader (FLIPR TETRA, Molecular Devices) (excitation wavelength at 470-495 nm, emission wavelength at 515-575 nm).
Compounds of invention were serially diluted in neat DMSO at 1000 fold concentrations and plated into 384-well plates and then 200-fold diluted in assay buffer containing 150 uM ZnCl2 (30 μM final concentration) and […].
Fluorescence was monitored throughout the run assay. The peak of Ca2+stimulation (baseline subtracted) was expressed as percentage of the maximal inhibition of the EC90 C3 response and was plotted versus the concentration of test compound. Curve fitting and IC50 estimations are carried out using a four-parameter logistic model using XLfit Software.
The potency of compounds was reported as functional pKi (—Log10Ki) obtained using the modified Cheng-Prusoff relationship (Cheng, Y., Prusoff, W. H. 1973.)
fKi =IC50/(1+[L]/EC50) where IC50 is the concentration of antagonist required for 50% inhibition of the maximum response, [L] is the concentration of the agonist used (EC90) and EC50 is the concentration of agonist need to induced 50% of the maximum response (obtained in each experimental plate).
An fpKi less than 5.2 is reported as “+/±”. An fpKi ranging from 5.2 to 5.9 is reported as “+”. An fpKi from 6.0 to 6.5 is reported as “++”. An fpKi from 6.6 to 7.2 is reported as “+++”. An fpKi equal to or greater than 7.3 is reported as “++++”.

On to `O=C(Nc1ccc(C(=O)N2CCS(=O)(=O)CC2)c(N2CCCC(F)(F)C2)c1)C1CC1` [Example 191, N-[3-(3,3-difluoropiperidin-1-yl)-4-(1,1-dioxo-1,4-thiazinane-4-carbonyl)phenyl]cyclopropanecarboxamide], for which the Ki is 1260 to 6310 nM.

Consider `O=C(Nc1ccc(C(=O)N2CCC(F)CC2)c(N2CCCC2)c1)C1CC1` [Example 168, N-[4-(4-fluoropiperidine-1-carbonyl)-3-pyrrolidin-1-ylphenyl]cyclopropanecarboxamide], for which the Ki fell in the range of 316 to 1000 nM. With `COc1cccc(CN2CCN(C(=O)c3ccc(NC(=O)C4CC4)cc3N3CCCCCC3)CC2)c1` [Example 25, N-(3-(azepan-1-yl)-4-(4-(3-methoxybenzyl)piperazine-1-carbonyl)phenyl) Cyclopropanecarboxamide], the Ki is 316 to 1000 nM.

With `CCOC1CCN(C(=O)c2ccc(NC(=O)C3CC3)cc2N2CCCCCC2)CC1` [Example 48, N-(3-(azepan-1-yl)-4-(4-ethoxypiperidine-1-carbonyl)phenyl)cyclopropanecarboxamide], the Ki was in the range of 316 to 1000 nM. As for `O=C(Nc1ccc(C(=O)N2CCN(c3nccc4ccsc34)CC2)c(N2CCCCCC2)c1)C1CC1` [Example 33, N-[3-(azepan-1-yl)-4-(4-thieno[2,3-c]pyridin-7-ylpiperazine-1-carbonyl)phenyl]Cyclopropanecarboxamide], the Ki was 1260 to 6310 nM. As to `Cc1nnc(-c2ccc(NC(=O)C3CC3)cc2N2CCCCCC2)n1C` [Example 113, N-[3-(azepan-1-yl)-4-(4,5-dimethyl-1,2,4-triazol-3-yl)phenyl]cyclopropanecarboxamide], the Ki was 1260 to 6310 nM. In the case of `C[C@@H]1C[C@H](C)CN(c2cc(NC(=O)C3CC3)ccc2-c2nnc(Sc3ccccc3)n2C)C1` [Example 114b, N-[3-(3,5-dimethylpiperidin-1-yl)-4-(4-methyl-5-phenylsulfanyl-1,2,4-triazol-3-yl)phenyl]cyclopropanecarboxamide], the Ki fell in the range of 63.1 to 251 nM. As for `Cc1ccn(-c2cc(NC(=O)C3CC3)ccc2C(=O)N2CCC(C(F)(F)F)CC2)n1` [Example 156], the figure is 63.1 to 251 nM; as for `CN1CCN(C(=O)c2ccc(NC(=O)C3CC3)cc2N2CCC3(COC3)C2)C(c2ccccc2Cl)C1` (racemic) [Example 211, N-[4-[2-(2-chlorophenyl)-4-methylpiperazine-1-carbonyl]-3-(2-oxa-7-azaspiro[3.4]octan-7-yl)phenyl]cyclopropanecarboxamide], 63.1 to 251 nM; as for `O=C(Nc1ccc(C(=O)N2CCC(C(F)(F)F)CC2)c(N2CCCCCC2)c1)C1CC1` [Example 38, N-(3-(azepan-1-yl)-4-(4-(trifluoromethyl)piperidine-1-carbonyl)phenyl) cyclopropanecarboxamide], 63.1 to 251 nM. Turning to `CN1CCN(C(=O)c2ccc(NC(=O)C3CC3)cc2N2CCC(F)(F)C2)C(c2ccccc2)C1` (racemic) [Example 202c, N-[3-(3,3-difluoropyrrolidin-1-yl)-4-(4-methyl-2-phenylpiperazine-1-carbonyl)phenyl]cyclopropanecarboxamide], the Ki lay in the range of 63.1 to 251 nM.

On to `CN1CCN(C(=O)c2ccc(NC(=O)C3CC3)cc2N2CCCC2)C(c2ccccc2Cl)C1` (racemic) [Example 170c, N-[4-[2-(2-chlorophenyl)-4-methylpiperazine-1-carbonyl]-3-pyrrolidin-1-ylphenyl]cyclopropanecarboxamide], for which the Ki was at most 50.1 nM.

On to `CN1CCN(C(=O)c2ccc(NC(=O)C3CC3)cc2N2CCC3(CCC3)C2)C(c2ccccc2)C1` (racemic) [Example 66c, N-[3-(6-azaspiro[3.4]octan-6-yl)-4-(4-methyl-2-phenylpiperazine-1-carbonyl)phenyl]cyclopropanecarboxamide], for which the Ki is at most 50.1 nM. Turning to `O=C(Nc1ccc(C(=O)N2CCN(Cc3ncco3)CC2c2ccccc2)c(N2CCCCCC2)c1)C1CC1` (stereo not shown) [Example 83, N-[3-(azepan-1-yl)-4-[4-(1,3-oxazol-2-ylmethyl)-2-phenylpiperazine-1-carbonyl]phenyl]cyclopropanecarboxamide], the Ki fell in the range of 63.1 to 251 nM.

In the case of `Cc1nnc(-c2ccc(C(=O)N3CCN(C)CC3c3ccccc3)c(N3CCC(C(F)(F)F)C3)c2)[nH]1` (single isomer, unassigned) [Example 177a, (2S, 3R) or (2R, 3S) or (2R, 3R) or (2S, 3S) (4-methyl-2-phenylpiperazin-1-yl)-[4-(5-methyl-4H-1,2,4-triazol-3-yl)-2-[3-(trifluoromethyl)pyrrolidin-1-yl]phenyl]methanone], the Ki is 63.1 to 251 nM.

As for `CN1CCN(C(=O)c2ccc(NC(=O)C3CC3)cc2N2CCCCC2)C(c2ccccc2)C1` (racemic) [Example 201c, N-[4-(4-methyl-2-phenylpiperazine-1-carbonyl)-3-piperidin-1-ylphenyl]cyclopropanecarboxamide], the Ki fell in the range of 63.1 to 251 nM. Take `CCCN1CCN(C(=O)c2ccc(NC(=O)C3CC3)cc2-c2ccccc2)CC1` [Example 10, N-(6-(4-propylpiperazine-1-carbonyl)-[1,1′-biphenyl]-3-yl)cyclopropanecarboxamide]: the Ki was in the range of 1260 to 6310 nM. Regarding `CN1CCN(C(=O)c2ccc(NC(=O)C3CC3)cc2-n2ccc(C(F)(F)F)n2)C(c2ccccc2)C1` (stereo not shown) [Example 206, N-[4-(4-methyl-2-phenylpiperazine-1-carbonyl)-3-[3-(trifluoromethyl)pyrazol-1-yl]phenyl]cyclopropanecarboxamide], the Ki lay within 63.1 to 251 nM. For `CCCN1CCN(C(=O)c2ccc(NC(=O)C3CC3)cc2N2CCCCCC2)CC1` [Example 36, N-(3-(azepan-1-yl)-4-(4-propylpiperazine-1-carbonyl)phenyl)cyclopropanecarboxamide], the Ki was 63.1 to 251 nM.

Take `CN1CCN(C(=O)c2ccc(-c3nnc(C4CC4)[nH]3)cc2N2CCCC2)C(c2ccccc2)C1` (single isomer, unassigned) [Example 151a, (2R or 2S) [4-(5-cyclopropyl-4H-1,2,4-triazol-3-yl)-2-pyrrolidin-1-ylphenyl]-(4-methyl-2-phenylpiperazin-1-yl)methanone]: the Ki was in the range of 63.1 to 251 nM. Turning to `CC1CC(C)CN(c2cc(NC(=O)C3CC3)ccc2C(=O)N2CCN(C)CC2c2ccccc2)C1` (single isomer, unassigned) [Example 68a, Syn 2R or 2S N-[3-[3,5-dimethylpiperidin-1-yl]-4-(4-methyl-2-phenylpiperazine-1-carbonyl)phenyl] cyclopropanecarboxamide], the Ki is at most 50.1 nM. Regarding `O=C(Nc1ccc(C(=O)N2CCS(=O)(=O)CC2)c(-n2ccc(C3CC3)n2)c1)C1CC1` [Example 180, N-[3-(3-cyclopropylpyrazol-1-yl)-4-(1,1-dioxo-1,4-thiazinane-4-carbonyl)phenyl]cyclopropanecarboxamide], the Ki was at most 50.1 nM. For `CN1CCN(C(=O)c2ccc(NC(=O)C3CC3)cc2N2CCCC2)C(c2cccs2)C1` (single isomer, unassigned) [Example 86b, N-[4-(4-methyl-2-thiophen-2-ylpiperazine-1-carbonyl)-3-pyrrolidin-1-ylphenyl]cyclopropanecarboxamide], the Ki is at most 50.1 nM. In the case of `CC1CCN(c2cc(NC(=O)C3CC3)ccc2C(=O)N2CCN(C)CC2c2ccccc2)C1` (single isomer, unassigned) [Example 64c, (2S, 3R) or (2R, 3S) or (2R, 3R) or (2S, 3S) N-[4-(4-methyl-2-phenylpiperazine-1-carbonyl)-3-(3-methylpyrrolidin-1-yl)phenyl] cyclopropanecarboxamide], the Ki is at most 50.1 nM. Take `O=C(Nc1ccc(C(=O)N2CCSCC2c2ccccc2)c(N2CCCC2)c1)C1CC1` (stereo not shown) [Example 58, N-[4-(3-phenylthiomorpholine-4-carbonyl)-3-pyrrolidin-1-ylphenyl]cyclopropanecarboxamide]: the Ki was in the range of 63.1 to 251 nM.

Source of the values: patent US20230174484A1, “ANTAGONISTS OF GPR39 PROTEIN” (Oregon Health & Science University, priority 2020, published 2023).
